Reference: patent US9149038B2, “4-amino-6-(heterocyclic)picolinates and 6-amino-2-(heterocyclic)pyrimidine-4-carboxylates and their use as herbicides” (Dow AgroSciences LLC, priority 2013, dated 2015)

Test system: Key Broadleaf and Grass Weed as well as Crop Species
Experiment: Pre-Emergent Test I: preemergent herbicidal activity, herbicidal effect rating 14 days after treatment (Table 6)
Format: in vivo
Details: for Visual Growth Reduction (%) 14 Days After Application ECHCG: barnyardgrass (Echinochloa crus-galli); for Visual Growth Reduction (%) 14 Days After Application SETFA: giant foxtail (Setaria faberi); for Visual Growth Reduction (%) 14 Days After Application IPOHE: ivyleaf morningglory (Ipomoea hederecea); for Visual Growth Reduction (%) 14 Days After Application HELAN: sunflower (Helianthus annuus); for Visual Growth Reduction (%) 14 Days After Application AVEFA: wild oats (Avena fatua)
Experimental: Herbicidal evaluations were made visually on a scale of 0 to 100 where 0 represents no activity and 100 represents complete plant death. Pre-Emergent Test I: Seeds of test species were planted into round plastic pots (5-inch diameter) containing sandy loam soil. After planting, all pots were sub-irrigated 16 h prior to compound application. Compounds were dissolved in a 97:3 v/v mixture of acetone and DMSO and diluted to the appropriate concentration in a final application solution containing water, acetone, isopropanol, DMSO and Agri-dex (crop oil concentrate) in a 59:23:15:1.0:1.5 v/v ratio and 0.02% w/v (weight/volume) of Triton X-155 to obtain the spray solution containing the highest application rate. The high application rate was serial diluted with the above application solution to provide delivery of the compound at rates ½×, ¼× and ⅛× of the highest rate (equivalent to 4.0, 2.0, 1.0, and 0.5 kg/ha, respectively). Formulated compound (2.7 mL) was applied pipetted evenly over the soil surface followed by incorporation with water (15 mL). Following treatment, pots were returned to the greenhouse for the duration of the experiment. The greenhouse was programmed for an approximate 15 h photoperiod which was maintained at about 23-29° C. during the day and 22-28° C. during the night. Nutrients and water were added on a regular basis through surface irrigation and supplemental lighting was provided with overhead metal halide 1000-Watt lamps as necessary. Herbicidal effect ratings were obtained 14 days after treatment. All evaluations were made relative to appropriate controls on a scale of 0 to 100 where 0 represents no herbicidal effect and 100 represents plant death or lack of emergence from the soil and are presented as indicated in Table 4.

Row | Structure (SMILES) | Visual Growth Reduction (%) 14 Days After Application ECHCG (4 kg ai/ha) | Visual Growth Reduction (%) 14 Days After Application SETFA (4 kg ai/ha) | Visual Growth Reduction (%) 14 Days After Application IPOHE (4 kg ai/ha) | Visual Growth Reduction (%) 14 Days After Application HELAN (4 kg ai/ha) | Visual Growth Reduction (%) 14 Days After Application AVEFA (4 kg ai/ha) | Visual Growth Reduction (%) 14 Days After Application ECHCG (3.96 kg ai/ha) | Visual Growth Reduction (%) 14 Days After Application SETFA (3.96 kg ai/ha) | Visual Growth Reduction (%) 14 Days After Application IPOHE (3.96 kg ai/ha) | Visual Growth Reduction (%) 14 Days After Application HELAN (3.96 kg ai/ha) | Visual Growth Reduction (%) 14 Days After Application AVEFA (3.96 kg ai/ha)
1 | Nc1c(F)c(-c2cccc3c2OCO3)nc(C(=O)O)c1Cl [Compound 72, 4-Amino-6-(benzo[d][1,3]dioxol-4-yl)-3-chloro-5-fluoropicolinic acid] | C (75-84) | G (0-29) | G (0-29) | A (95-100) | D (60-74) | – | – | – | – | –
2 | COC(=O)c1nc(-c2cccc3c2OCO3)c(F)c(N)c1Cl [Compound 71, Methyl 4-amino-6-(benzo[d][1,3]dioxol-4-yl)-3-chloro-5-fluoropicolinate] | F (30-44) | G (0-29) | E (45-59) | A (95-100) | F (30-44) | – | – | – | – | –
3 | COC(=O)c1nc(-c2cccc3c2OC(F)(F)O3)c(F)c(N)c1Cl [Compound 73] | – | – | – | – | – | G (0-29) | G (0-29) | C (75-84) | A (95-100) | G (0-29)
4 | Nc1c(F)c(-c2cccc3c2OC(F)(F)O3)nc(C(=O)O)c1Cl [Compound 74] | – | – | – | – | – | A (95-100) | E (45-59) | D (60-74) | A (95-100) | D (60-74)
